Test results taken from US20130131088A1 (UNIVERSITY HEALTH NETWORK, priority 2010, published 2013).

Key:
[1] = tested on: AML-3 cell line; test: potentiation of statin cytotoxic/apoptotic effects by agents that mimic DP activities; format: cell-based; details: for potentiation of the cytotoxic effects of statins / statin cancer cell death: in combination with statin (forskolin with fluvastatin)
Method: The mechanism of action was investigated. First, to tease apart which of DP's many activities may be functionally critical, the synergistic potential of a panel of agents that mimics DP in one or more of its activities was tested (see Table 1).
As cilostazol inhibits PDE3 which activates. PKA, studies were carried out using various PKA activators, including forskolin, a cell permeable analog of cAMP, db-cAMP, and a PDE3 inhibitor. […] Inhibition of PDEs 6, 9 and 11 by zaprinast is expected to raise cGMP but not cAMP levels.

[2] = tested on: AML-2; test: potentiation of statin cytotoxic effects by agents that mimic DP activities; format: cell-based; details: in combination with statin
Method: (§1) As cilostazol inhibits PDE3 which activates. PKA, studies were carried out using various PKA activators, including forskolin, a cell permeable analog of cAMP, db-cAMP, and a PDE3 inhibitor.

[3] = tested on: KMS11; test: as above; format: cell-based; details: in combination with statin
Method: as §1

[4] = tested on: AML cell lines and the KMS11 mM cell line; test: combination tests (FIG. 12); format: cell-based; details: in combination with fluvastatin
From the text: FIG. 12. Combination tests.

[5] = tested on: KMS11-luc (KMS11 cells stably expressing luciferase)
From the text: Tumours were imaged in mice on designated days by whole-body imaging using the IVIS imaging system illustrated by a representative image (C). Briefly, mice were i.p. injected with luciferein followed by anesthetization with isoflurane. Signal intensity was quantified using Living Image versio 2.50.2 (Xenogen) by summing detected photon counts from dorsal and ventral images.

[6] = tested on: CREB phosphorylation; test: CREB phosphorylation immunoblot (LI-COR quantification); format: cell-based; details: AML-3 cell line, 2 hours post-treatment
Method: as §1

[7] = tested on: KMS11 Multiple Myeloma (MM) cells; test: chemical screen for compounds potentiating the anti-proliferative/cytotoxic effect of atorvastatin (MTS); format: cell-based; details: sublethal doses in combination with atorvastatin (IC20), 72 hours
Method: A hundred compounds from the chemical library (see text) were assayed at varying concentrations (5-50 μM).
One hundred compounds were evaluated for their ability to potentiate the anti-proliferative activity of atorvastatin on statin-sensitive KMS11 mM cells. Briefly, cells were exposed to sublethal doses of atorvastatin (IC20) alone and in combination with sublethal doses of the compounds.

[8] = tested on: primary AML patient samples; test: apoptosis by Annexin V and propidium iodide dual staining; format: cell-based; details: 48 hrs
From the text: AV−/PI−=live cells, AV+/PI−=early apoptosis, AV+/PI+=late apoptosis, AV−/PI+=necrosis.

[9] = tested on: A549; test: potentiation and synergy with statin in lung cancer cell line; format: cell-based; details: with atorvastatin, 72 hours
Method: (§2) Atorvastatin was used in A549's and fluvastatin the breast cancer cell lines to asses potentiation and synergy.
(§3) Experiments in breast cancer cell lines (e.g. MCF-7) as well as the lung cancer cell lines (e.g. A549) were carried out similarly as described above.
(§4) Atorvastatin was used in A549's and fluvastatin the breast cancer cell lines to assess potentiation and synergy.

[10] = tested on: breast cancer cell lines (e.g. MCF-7); test: potentiation and synergy with statin in breast cancer cell lines; format: cell-based; details: with fluvastatin, 72 hours
Method: as §2, §3, §4

[11] = tested on: HMGCR mRNA in LP1 mM cells; test: HMGCR mRNA levels by real-time PCR (SYBR Green); format: cell-based; details: combination of statins and dipyridamole, 16 hours post compound treatment
Method: (§5) RNA from primary AML and LP1 cells was harvested 24 and 16 hours post compound treatment respectively using TRIZOL reagent. HMGCR mRNA levels were assessed using real-time PCR (SYBR Green). […] For example, Fluva 2 indicates a fluvastatin concentration of 2 μM.

[12] = tested on: HMGCR mRNA in primary AML patient samples; test: HMGCR mRNA levels by real-time PCR (SYBR Green); format: cell-based; details: combination of statins and dipyridamole, 24 hours post compound treatment
Method: as §5

[13] = tested on: KMS11 cell line; test: apoptosis by fixed PI, TUNEL and PARP cleavage; details: combination of dipyridamole and atorvastatin, 48 hrs; MVA dependant
[14] = tested on: AML-3 cell line; test: apoptosis by fixed PI, TUNEL and PARP cleavage; details: combination of dipyridamole and atorvastatin, 48 hrs; MVA dependant
[15] = p.o. three times a week for 37 days initiated 2 days post KMS11-luc injection, alone

O=C1CCc2cc(OCCCCc3nnnn3C3CCCCC3)ccc2N1 [Cilostazol, cilostazol]
potentiation of the cytotoxic effects of statins / statin cancer cell death [1]: potentiated
potentiation of the cytotoxic effects of statins [2]: potentiated
potentiation of the cytotoxic effects of statins [3]: potentiated
level of potentiation compared with dipyridamole+fluvastatin [4]: similar
potentiation of fluvastatin cell death [4]: potentiated

CC(C)c1c(C(=O)Nc2ccccc2)c(-c2ccccc2)c(-c2ccc(F)cc2)n1CC[C@@H](O)C[C@@H](O)CC(=O)O [atorvastatin]
effect on tumour growth, lower doses alone ([5]; lower doses, p.o. 3 times a week): no significant effect
survival [5, 15]: prolonged
tumor burden [5, 15]: significantly reduced

CCCC(=O)Nc1ncnc2c1ncn2[C@@H]1O[C@@H]2COP(=O)(O)O[C@H]2[C@H]1OC(=O)CCC [db-cAMP, dibutyryl-cAMP]
apoptotic effects in combination with atorvastatin ([1]; 0.25 mM in combination with atorvastatin, 48 hours post treatment): recapitulated the DP-atorvastatin apoptotic effects
CREB phosphorylation [6]: increase

OCCN(CCO)c1nc(N2CCCCC2)c2nc(N(CCO)CCO)nc(N3CCCCC3)c2n1 [dipyridamole]
potentiation of the anti-proliferative activity of atorvastatin [7]: remarkable potentiation
induction of apoptosis ([8]; in combination with atorvastatin): induced apoptosis
induction of apoptosis ([8]; in combination with fluvastatin): induced apoptosis
potentiation of the anti-cancer effects of statins [9]: potentiated
potentiation of the anti-cancer effects of statins [10]: potentiated
CREB phosphorylation [6]: increase
upregulation of HMGCR mRNA [11]: prevents the upregulation
upregulation of HMGCR mRNA [12]: prevents the upregulation
induction of apoptosis [13]: induced apoptosis
induction of apoptosis [14]: induced apoptosis

C=C[C@@]1(C)CC(=O)[C@]2(O)[C@@]3(C)[C@@H](O)CCC(C)(C)[C@@H]3[C@H](O)[C@H](OC(C)=O)[C@@]2(C)O1 [forskolin]
potentiation of the cytotoxic effects of statins / statin cancer cell death [1]: potentiated
